The subject of series [1] is TK6 cells. The following applies: for % MN: 2% Aroclor S9.
For series [2], the system named is TGx‐28.65 biomarker genes. The following applies: for Dendogram TGx‐28.65 / NSC TGx‐28.65 / PCA TGx‐28.65: 2% Aroclor S9, 4 hr + 3-4 hr recovery.
For series [3], the system named is TK6 cells. The following applies: 2% Aroclor S9, 4 hr + 20 hr recovery.
Series [4] relates to TK6 cells. The following applies: 2% Aroclor S9, 4 hr + 20 hr recovery. The source holds these as a separate data set.
Series [5] relates to TGx‐28.65 biomarker genes. The following applies: 2015, cited from earlier work; for Dendogram TGx‐28.65 / NSC TGx‐28.65 / PCA TGx‐28.65: 1% BF/PB S9.
In series [6] the test system is TK6 cells. The following applies: 1% BF/PB S9, ref Buick et al., 2015, cited from earlier work.
Another series relates to GADD45A. The class given is cell-based, human.
A further series relates to CDKN1A. The class given is cell-based, human.
The test system of another series is ATF3. Type of series: cell-based, human. The following applies: 2% Aroclor S9, 4 hr + 3-4 hr recovery.
Setting [7] is: 2 μg/ml, 2% Aroclor S9, 4 hr + 3-4 hr recovery.
The mark [8] stands for this setting: 1 μg/ml, 2% Aroclor S9, 4 hr + 3-4 hr recovery.
[9] abbreviates: 20 μg/ml, 2% Aroclor S9, 4 hr + 3-4 hr recovery.
The mark [10] stands for this setting: 280 μg/ml, 2% Aroclor S9, 4 hr + 3-4 hr recovery.

Where two headings read alike, the source gives them in different places.

In the case of `CC(=O)Nc1ccc(O)cc1` [Acetaminophen], in the series with TK6 cells [1] (human), the “concentration range in which toxic effects are observed” value is 3000 to 10000 µM.
Regarding `O=P1(N(CCCl)CCCl)NCCCO1` (stereo not shown) [Cyclophosphamide], in the series on TK6 cells [1] (human), the “fold increase in % MN above vehicle + S9 control” value amounted to 8 fold.
Consider `c1ccc2c(c1)ccc1ccccc12` [Phenanthrene], for which, in the series with TK6 cells [1], the “increase in % MN” value is given as “no significant increase”. Further, the “Dendogram TGx‐28.65” value in [2] (8 μg/ml), in [2] (40 μg/ml) and in [2] (100 μg/ml) was “−” each time. The “NSC TGx‐28.65” value in series [2] (8 μg/ml), in series [2] (40 μg/ml) and in series [2] (100 μg/ml) was “−” each time. The “PCA TGx‐28.65” value in series [2] (8 μg/ml), in [2] (40 μg/ml) and in series [2] (100 μg/ml) was “−” each time. The “% Relative Survival” value is 94.13% in the series with TK6 cells [3] (8 μg/ml); 65.32% with TK6 cells [3] (40 μg/ml); 38.91% with TK6 cells [3] (100 μg/ml); about 40% with TK6 cells [3] (100 μg/ml, listed as phenanthrene). Also, the “% Apoptotic cells” value with TK6 cells [4] (8 μg/ml) is recorded as 10.60%; in the series on TK6 cells [4] (40 μg/ml), 14.71%; in the series on TK6 cells [4] (100 μg/ml) it was 26.73%.
With `C[C@@H]1C[C@H]2[C@@H]3CCC4=CC(=O)C=C[C@]4(C)[C@@]3(F)[C@@H](O)C[C@]2(C)[C@@]1(O)C(=O)CO` [Dexamethasone], in series [5] (0.63 mM, ref Buick et al.), the “Dendogram TGx‐28.65” value is recorded as “−”, the “NSC TGx‐28.65” value is recorded as “−” and the “PCA TGx‐28.65” value is “−”. Further, in series [5] (1 mM, ref Buick et al.), the “Dendogram TGx‐28.65” value is “−”, the “NSC TGx‐28.65” value was “−” and the “PCA TGx‐28.65” value is “−”. Also, in the series on TK6 cells [6] (0.63 mM), the “% Apoptotic cells” value was 5.5%. Besides, the “% Apoptotic cells” value in the series on TK6 cells [6] (1 mM) is 12.2%.
As to `CC(C)OS(C)(=O)=O` [isopropyl methanesulfonate], the “classification using TGx‐28.65” value in series [5] (TK6 cells, biomarker development study, ref Li et al.) is on record as “genotoxic”.
As to `O=[N+]([O-])c1ccc2c(c1)Cc1ccccc1-2` [2‐Nitrofluorene], the “% MN” value in the series with TK6 cells [1] (10 μM, 4 hr + 20 hr recovery) is reported as 1.48%; in the series with TK6 cells [1] (50 μM, 4 hr + 20 hr recovery) it was 2.23%; with TK6 cells [1] (300 μM, 4 hr + 20 hr recovery), 3.13%. The “Dendogram TGx‐28.65” value in series [2] (10 μM), in series [2] (50 μM) and in [2] (300 μM) was “−” in each case. In addition, the results for the “NSC TGx‐28.65” value in series [2] (10 μM), in [2] (50 μM) and in series [2] (300 μM) were “−”, “+” and “+”, respectively. For the same molecule, the “PCA TGx‐28.65” value in series [2] (10 μM) is recorded as “−”; in [2] (50 μM) it was “+”; in [2] (300 μM) it was “+”. Further, the “classification by hierarchical cluster analysis (TGx‐28.65 genes)” value in series [2] (all concentrations) was “non‐genotoxic”. Further, the “classification using TGx‐28.65” value is on record as “non‐genotoxic” in series [2] (low concentrations); “genotoxic” in series [2] (mid and high concentrations). For the same molecule, the “% Apoptotic cells” value worked out at 9.84% in the series with TK6 cells [4] (10 μM), 12.62% in the series with TK6 cells [4] (50 μM) and 20.43% in the series with TK6 cells [4] (300 μM).
As to `OC[C@H]1O[C@@](CO)(O[C@H]2O[C@H](CO)[C@@H](O)[C@H](O)[C@H]2O)[C@@H](O)[C@@H]1O` [Sucrose], the “% MN” value in the series on TK6 cells [1] (1 mM, 4 hr + 20 hr recovery) is 0.94%; with TK6 cells [1] (10 mM, 4 hr + 20 hr recovery), 0.97%. The “increase in % MN” value in the series on TK6 cells [1] (definitive study, 2% Aroclor‐induced S9) is given as “no significant increase”. For the same molecule, the “Dendogram TGx‐28.65” value in series [2] (1 mM) and in series [2] (10 mM) was “−” throughout. Moreover, the “NSC TGx‐28.65” value in series [2] (1 mM) and in series [2] (10 mM) was “−” in each case. Also, the “PCA TGx‐28.65” value in [2] (1 mM) and in series [2] (10 mM) was “−” each time. Moreover, the entries for the “% Relative Survival” value in the series with TK6 cells [3] (1 mM) and in the series on TK6 cells [3] (10 mM) were 95.04% and 90.93%, respectively. The “GADD45A fold change vs vehicle control (+S9)” value (“GADD45A fold change” below) in the series on GADD45A was determined as 0.8 fold change. The “% Apoptotic cells” value in the series on TK6 cells [4] (1 mM) was determined as 8.98%; with TK6 cells [4] (10 mM), 9.75%. For the same molecule, the “CDKN1A fold change vs vehicle control (+S9)” value (“CDKN1A fold change” for short) in the series on CDKN1A is 0.4 fold change.
With `Nc1ccc2cc3ccccc3cc2c1` [2‐Aminoanthracene], the “% MN” value in the series with TK6 cells [1] (2 μg/ml, 4 hr + 20 hr recovery) worked out at 1.22%. Further, the “fold increase in % MN above vehicle + S9 control” value in the series with TK6 cells [1] (high concentration, definitive study, 4 hr + 20 hr recovery) worked out at 1.8 fold. In series [2] (2 μg/ml), the “Dendogram TGx‐28.65” value was “+”, the “NSC TGx‐28.65” value is recorded as “+” and the “PCA TGx‐28.65” value is on record as “+”. The “probability of being genotoxic (NSC, TGx‐28.65)” value in [2] (all concentrations) is listed as over 0.9. For the same molecule, in [2] (mid and high concentrations), the “classification using TGx‐28.65” value is reported as “genotoxic”. The “% Relative Survival” value in the series with TK6 cells [3] (2 μg/ml) amounted to 46.78%. Also, the “% Relative Survival” value in the series on TK6 cells [3] (2 μg/ml, listed as 2‐aminoanthracene) is 47%. For the same molecule, the “GADD45A fold change” value in the series with GADD45A (setting [7]) is 1.7 fold change. In the series with TK6 cells [4] (2 μg/ml), the “% Apoptotic cells” value amounted to 18.48%. The “CDKN1A fold change” value in the series with CDKN1A (setting [7]) is 4.6 fold change. Moreover, the “ATF3 fold change vs vehicle control (+S9)” value with ATF3 (2 μg/ml) was 2.3 fold change.
Turning to `c1ccc2c(c1)ccc1cc3c(ccc4ccccc43)cc12` [Dibenz[a,h]anthracene], the “% MN” value in the series with TK6 cells [1] (1 μg/ml, 4 hr + 20 hr recovery) is listed as 2.16%; in the series with TK6 cells [1] (20 μg/ml, 4 hr + 20 hr recovery), 3.42%; in the series with TK6 cells [1] (280 μg/ml, 4 hr + 20 hr recovery), 3.80%. In addition, in the series on TK6 cells [1] (for at least one concentration, definitive study), the “statistically significant % MN increase relative to controls” value is reported as “over twofold”. For the same molecule, the “Dendogram TGx‐28.65” value in series [2] (1 μg/ml), in series [2] (20 μg/ml) and in series [2] (280 μg/ml) was “+” each time. The “NSC TGx‐28.65” value in series [2] (1 μg/ml) was “−”; in [2] (20 μg/ml) it was “+”; in [2] (280 μg/ml) it was “+”. Besides, the entries for the “PCA TGx‐28.65” value in series [2] (1 μg/ml), in series [2] (20 μg/ml) and in series [2] (280 μg/ml) were “−”, “+” and “+”, respectively. The “classification using TGx‐28.65” value in series [2] (low concentrations) is on record as “non‐genotoxic”; in series [2] (mid and high concentrations), “genotoxic”. For the same molecule, the “classification by hierarchical cluster analysis (TGx‐28.65 genes)” value in [2] (lowest concentration) is on record as “genotoxic”. Besides, the entries for the “% Relative Survival” value in the series on TK6 cells [3] (1 μg/ml), in the series on TK6 cells [3] (20 μg/ml) and with TK6 cells [3] (280 μg/ml) were 97.79%, 64.12% and 53.91%, respectively. Further, the “GADD45A fold change” value came out at 1.2 fold change with GADD45A (setting [8]), 1.7 fold change in the series on GADD45A (setting [9]) and 2.0 fold change in the series on GADD45A (setting [10]). Moreover, the “% Apoptotic cells” value in the series on TK6 cells [4] (1 μg/ml) worked out at 9.74%; in the series on TK6 cells [4] (20 μg/ml), 16.82%; in the series with TK6 cells [4] (280 μg/ml) it was 31.79%. Further, the “CDKN1A fold change” value in the series on CDKN1A (setting [8]) is listed as 1.2 fold change; in the series with CDKN1A (setting [9]), 2.4 fold change; with CDKN1A (setting [10]), 4.2 fold change. Moreover, the “ATF3 fold change vs vehicle control (+S9)” value came out at 1.1 fold change in the series on ATF3 (1 μg/ml), 1.6 fold change in the series on ATF3 (20 μg/ml) and 2.3 fold change in the series with ATF3 (280 μg/ml).
On to `N.N.[Cl][Pt][Cl]` [cisplatin], for which, in series [5] (in the presence and absence of S9, ref Buick et al.), the “classification using TGx‐28.65” value was “accurately classified the genotoxicity”.

The record behind these values is paper PMC5021161 (Environmental and Molecular Mutagenesis, 2016).
